Counter-ions that a name gives are not always drawn. Like-named read-outs stand apart in the source and are kept apart here.
How the values were obtained:
[1] = tested on: LTB4 production in mouse blood (LTA4 hydrolase); test: Ex vivo LTB4 production by calcium ionophore stimulated mouse blood after oral dosing; assay type: in vivo
Summary of the method: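 Male outbred mice dosed by oral gavage, 10 mg/kg (some at 50 mg/kg) in PBS with 2% DMSO and 1% Tween 80; heparinised blood taken at 60 min, calcium ionophore-stimulated 10 minutes at 37° C. LTB4 and thromboxane by ELISA; % inhibition against vehicle-dosed animals.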

[2] = molecular target: T1, recombinant human LTA4 hydrolase (rhLTA4H) (Homo sapiens, UniProt P09960); test: Recombinant human LTA4 hydrolase assay for LTA4 hydrolase inhibitor activity; conditions: Recombinant Human LTA4 Hydrolase Assay IC50 LTA4H, recombinant hLTA4H
T1 sequence (P09960 1-611): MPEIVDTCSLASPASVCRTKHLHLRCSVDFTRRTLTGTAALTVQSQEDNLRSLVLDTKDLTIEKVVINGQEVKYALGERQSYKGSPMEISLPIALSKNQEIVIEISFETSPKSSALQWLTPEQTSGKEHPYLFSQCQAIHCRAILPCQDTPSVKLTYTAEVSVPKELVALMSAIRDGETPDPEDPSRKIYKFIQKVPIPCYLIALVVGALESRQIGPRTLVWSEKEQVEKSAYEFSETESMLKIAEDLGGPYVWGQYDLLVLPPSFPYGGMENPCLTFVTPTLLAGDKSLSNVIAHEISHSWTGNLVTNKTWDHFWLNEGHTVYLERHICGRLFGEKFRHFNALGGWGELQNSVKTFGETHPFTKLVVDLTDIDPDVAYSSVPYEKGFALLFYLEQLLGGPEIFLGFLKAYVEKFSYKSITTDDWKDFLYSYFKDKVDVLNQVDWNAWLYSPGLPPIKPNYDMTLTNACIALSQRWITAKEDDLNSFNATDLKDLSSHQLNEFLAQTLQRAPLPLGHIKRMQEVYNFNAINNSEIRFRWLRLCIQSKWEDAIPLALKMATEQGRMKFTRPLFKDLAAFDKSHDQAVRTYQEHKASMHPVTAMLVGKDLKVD

[3] = tested on: LTB4 production in human whole blood (LTA4 hydrolase); test: LTB4 production by calcium ionophore stimulated human blood; assay type: cell-based; conditions: read-out: Inhibition of Calcium Ionophore-Induced LTB4 Production in Human Blood IC50 HWB
Description: LTB4 and Thromboxane Production by Calcium Ionophore Stimulated Human Blood for LTA4 Hydrolase Inhibitor Activity
One or more concentrations of the leukotriene A4 hydrolase inhibitor compounds being tested were prepared (diluted in DMSO) and 2 μl added and gently mixed with the diluted whole blood. After incubating for 15 minutes at 37° C. in a humidified incubator, calcium ionophore A23187 (Sigma Chemical Co., St. Louis, Mo.) was added to a final concentration of 20 mcg/ml and the incubation continued under the same conditions for an additional 10 minutes to allow LTB4 formation. The reaction was terminated by centrifugation (833 g, 10 minutes at 4° C.) and supernatant were analyzed for LTB4 and thromboxane by commercially available enzyme-linked immunoassays (Caymen Chemical Co., Ann Arbor, Mich.) according to the manufacturer's instructions. The IC50 of each test compound was determined from the amount of inhibition of LTB4 production as compared to an essentially identical assay in which no inhibitor compound was present.

LTA4 hydrolase = molecular target: T2, LTA4 hydrolase (Homo sapiens, UniProt P09960); conditions: background statement; cited from earlier work
T2 sequence (P09960 1-611): T1 sequence (P09960 1-611)

[4] = mouse, oral gavage, 1 hour after administration of 10 mg/kg; read-out: Murine Ex Vivo LTB4 Inhibition % I LTB4
[5] = Homo sapiens, human whole blood, A23187
[6] = Mus musculus, po, 1 h; read-out: Murine Ex Vivo LTB4 Inhibition % I LTB4
[7] = Mus musculus, po, 1 h, read-out: Murine Ex Vivo LTB4 Inhibition % I LTB4

Row | melting point [°C] | IC50 [2] [nM] | IC50 [3, 5] [nM] | SMILES | inhibition in vivo at 10 mg/kg [1, 4] [%] | also measured
1 | – | 77 | 450 | CCOC(=O)CCNCCCOc1ccc(Cc2ccccc2)cc1 [Example 265] | 54 | –
2 | – | 93 | 169 | NC(=O)C1CCN(CC2Cc3cc(Cc4ccccc4)ccc3O2)CC1 (stereo not shown) [Example 281] | 83 | –
3 | – | 220 | 470 | c1ccc(Cc2ccc(OCCN3CCCCCCC3)cc2)cc1 [Example 398] | 0 | –
4 | 165 to 169 | 110 | – | O=C(O)[C@@H]1CCCN1CCCOc1ccc(Cc2ccccc2)cc1 [Example 430] | 37 | –
5 | 165 to 167 | – | 280 | O=C(O)CCNCCCOc1ccc(Cc2ccccc2)cc1 [Example 431] | 71 | –
6 | 140 to 141 | – | – | O=C(O)CCNCCCCOc1ccc(Cc2ccccc2)cc1 [Example 433] | 71 | –
7 | – | – | 290 | NC1CCN(CCOc2ccc(Cc3ccccc3)cc2)C1 (stereo not shown) [Example 452] | 57 | –
8 | 132 to 134 | – | 350 | NC(=O)NC1CCN(CCOc2ccc(Cc3ccccc3)cc2)C1 (stereo not shown) [Example 453] | 92 | –
9 | – | – | 440 | NC(=O)NC1CCN(CCOc2ccc(Cc3ccccc3)cc2)CC1 [Example 456] | 72 | –
10 | – | – | 2400 | NC(=O)N1CCN(CCOc2ccc(Cc3ccccc3)cc2)CC1 [Example 459] | 44 | –
11 | – | 10 | 280 | NCCOc1ccc(Cc2ccccc2)cc1 [Example 496] | 54 | –
12 | 37 to 38 | 200 | – | C1=CC2CC1CN2CCOc1ccc(Cc2ccccc2)cc1 (stereo not shown) [Example 497] | 45 | –

Continued, molecule first:

Row | SMILES | melting point [°C] | IC50 [2] [nM] | IC50 [3, 5] [nM] | inhibition in vivo at 10 mg/kg [1, 4] [%] | also measured
13 | c1ccc(Oc2ccc(NCCN3CCCC3)cc2)cc1 (as salt: HCl) [Example 71, N-(4-phenoxyphenyl)-1-pyrrolidine ethanamine, monohydrochloride] | 202 to 202.5 | – | – | – | –
14 | c1ccc(Cc2ccc(OCCn3cnc4cnccc43)cc2)cc1 [340 B] | – | 120 | 330 | 64 | –
15 | c1ccc(Oc2ccc(OCCCn3cnc4cnccc43)cc2)cc1 [351 B] | – | 290 | 2080 | 71 | –
16 | c1ccc(Cc2ccc3c(c2)CC(Cn2cnc4cnccc42)O3)cc1 (stereo not shown) [358 B] | – | 410 | – | – | inhibition in vivo at 10 mg/kg [1, 6]: 33%; IC50 ([3]; human whole blood, A23187): 640 nM
17 | c1ccc(Cc2ccc3c(c2)CC(Cn2ccc4ncnc-4c2)O3)cc1 (stereo not shown) [358 C] | – | 87 | – | – | inhibition in vivo at 10 mg/kg [1, 6]: 13%; IC50 ([3]; human whole blood, A23187): 590 nM
18 | Cl.c1ccc(Cc2ccc(SCCN3CCCC3)cc2)cc1 [Example 68, 1-[2-[4-(phenylmethyl)phenylthio]ethyl]pyrrolidine, monohydrochloride] | 137 to 139 | – | – | – | –
19 | [O-][S+](CCN1CCCC1)c1ccc(Cc2ccccc2)cc1 (stereo not shown) [Example 69, 1-[2-[4-(phenylmethyl)phenylsulfinyl]ethyl]pyrrolidine, monohydrochloride] | – | 6520 | – | – | inhibition in vivo at 10 mg/kg [1, 7]: 13%; IC50 ([3]; Homo sapiens): 11800 nM
20 | OCCOc1ccc(Oc2ccc(F)cc2)cc1 [Example 161] | 78 to 79 | – | – | – | –
21 | Oc1ccc(OCCN2CCCC2)cc1 [Example 199] | 113 to 115 | – | – | – | –
22 | CCOC(=O)C1CCN(CCOc2ccc(Cc3ccccc3)cc2)CC1 [Example 245] | – | 1770 | – | – | inhibition in vivo at 10 mg/kg [1, 7]: 97%; IC50 ([3]; Homo sapiens): 147 nM
23 | COC(=O)C1CC2CCC(C1)N2CC1Cc2cc(Cc3ccccc3)ccc2O1 (stereo not shown) [Example 283] | – | 19 | – | – | inhibition in vivo at 10 mg/kg [1, 7]: 90%; IC50 ([3]; Homo sapiens): 90 nM
24 | CN(CCCOc1ccc(Cc2ccccc2)cc1)CCC(=O)O [Example 434] | 113 to 116 | – | – | – | inhibition in vivo at 10 mg/kg [1, 7]: 100%
25 | CC(C)C[C@H](NC(=O)[C@@H](O)[C@H](N)Cc1ccccc1)C(=O)O [bestatin] | – | – | – | – | LTA4 hydrolase inhibitory activity (LTA4 hydrolase): exhibit LTA4 hydrolase inhibitory activity
26 | C[C@H](CS)C(=O)N1CCC[C@H]1C(=O)O [captopril] | – | – | – | – | LTA4 hydrolase inhibitory activity (LTA4 hydrolase): exhibit LTA4 hydrolase inhibitory activity

Reference: patent US6506876B1, “LTA4 hydrolase inhibitor pharmaceutical compositions and methods of use” (G.D. Searle & Co., priority 1994, dated 2003)
